Test results: the NIST ThermoML archive (doi:10.1021/je700261b)

Experiment: xn = mol fraction of the nth substance listed
Details: Liquid

CCCCO [butan-1-ol] + O=C=O
Details | mass density [kg/m3]
323.07 K, 16977 kPa, x2 = 0.0857 | 807.17
323.07 K, 18030 kPa, x2 = 0.0857 | 808.01
323.07 K, 18995 kPa, x2 = 0.0857 | 808.74
323.07 K, 19987 kPa, x2 = 0.0857 | 809.54
323.07 K, 21040 kPa, x2 = 0.0857 | 810.38
323.07 K, 21992 kPa, x2 = 0.0857 | 811.09
323.07 K, 23011 kPa, x2 = 0.0857 | 811.87
323.07 K, 24000 kPa, x2 = 0.0857 | 812.6
323.07 K, 25007 kPa, x2 = 0.0857 | 813.42
323.1 K, 10109 kPa, x2 = 0.4972 | 818.96
323.1 K, 11078 kPa, x2 = 0.4972 | 820.55
323.1 K, 11078 kPa, x2 = 0.5965 | 822.9
323.1 K, 12051 kPa, x2 = 0.4972 | 822.08
323.1 K, 12072 kPa, x2 = 0.5965 | 825.03
323.1 K, 12077 kPa, x2 = 0.8663 | 777.48
323.1 K, 13046 kPa, x2 = 0.8663 | 787.33
323.1 K, 13049 kPa, x2 = 0.4972 | 823.64
323.1 K, 13059 kPa, x2 = 0.5965 | 827.1
323.1 K, 14029 kPa, x2 = 0.8663 | 796.15
323.1 K, 14053 kPa, x2 = 0.4972 | 825.18
323.1 K, 14067 kPa, x2 = 0.5965 | 829.16
323.1 K, 15041 kPa, x2 = 0.4972 | 826.62
323.1 K, 15050 kPa, x2 = 0.8663 | 804.37
323.1 K, 15063 kPa, x2 = 0.5965 | 831.15
323.1 K, 16046 kPa, x2 = 0.5965 | 833.04
323.1 K, 16058 kPa, x2 = 0.4972 | 828.14
323.1 K, 16077 kPa, x2 = 0.8663 | 811.86
323.1 K, 17030 kPa, x2 = 0.5965 | 834.9
323.1 K, 17044 kPa, x2 = 0.8663 | 818.37
323.1 K, 17051 kPa, x2 = 0.4972 | 829.54
323.1 K, 18024 kPa, x2 = 0.8663 | 824.54
323.1 K, 18049 kPa, x2 = 0.5965 | 836.78
323.1 K, 18061 kPa, x2 = 0.4972 | 830.96
323.1 K, 19022 kPa, x2 = 0.4972 | 832.33
323.1 K, 19033 kPa, x2 = 0.8663 | 830.52
323.1 K, 19044 kPa, x2 = 0.5965 | 838.57
323.1 K, 20021 kPa, x2 = 0.4972 | 833.69
323.1 K, 20028 kPa, x2 = 0.8663 | 835.95
323.1 K, 20039 kPa, x2 = 0.5965 | 840.32
323.1 K, 21026 kPa, x2 = 0.8663 | 841.13
323.1 K, 21047 kPa, x2 = 0.4972 | 835.06
323.1 K, 21064 kPa, x2 = 0.5965 | 842.09
323.1 K, 22036 kPa, x2 = 0.4972 | 836.36
323.1 K, 22041 kPa, x2 = 0.5965 | 843.75
323.1 K, 22054 kPa, x2 = 0.8663 | 846.3
323.1 K, 23023 kPa, x2 = 0.5965 | 845.38
323.1 K, 23023 kPa, x2 = 0.8663 | 850.85
323.1 K, 23045 kPa, x2 = 0.4972 | 837.69
323.1 K, 23996 kPa, x2 = 0.4972 | 838.91
323.1 K, 24006 kPa, x2 = 0.8663 | 855.33
323.1 K, 24008 kPa, x2 = 0.5965 | 847
323.1 K, 25012 kPa, x2 = 0.4972 | 840.21
323.1 K, 25040 kPa, x2 = 0.5965 | 848.65
323.1 K, 25041 kPa, x2 = 0.8663 | 859.75
332.94 K, 1010 kPa, x2 = 0.0251 | 781.57
332.94 K, 2077 kPa, x2 = 0.0251 | 782.55
332.94 K, 3046 kPa, x2 = 0.0251 | 783.47
332.94 K, 3990 kPa, x2 = 0.0251 | 784.3
332.94 K, 5002 kPa, x2 = 0.0251 | 785.22
332.94 K, 6026 kPa, x2 = 0.0251 | 786.15
332.94 K, 6975 kPa, x2 = 0.0251 | 786.98
332.94 K, 8009 kPa, x2 = 0.0251 | 787.91
332.94 K, 9084 kPa, x2 = 0.0251 | 788.83
332.94 K, 9985 kPa, x2 = 0.0251 | 789.62
332.94 K, 11024 kPa, x2 = 0.0251 | 790.52
332.94 K, 12040 kPa, x2 = 0.0251 | 791.34
332.94 K, 12968 kPa, x2 = 0.0251 | 792.12
332.94 K, 12999 kPa, x2 = 0.9698 | 600.03
332.94 K, 13994 kPa, x2 = 0.0251 | 792.95
332.94 K, 14036 kPa, x2 = 0.9698 | 638.84
332.94 K, 15021 kPa, x2 = 0.9698 | 667.05
332.94 K, 15041 kPa, x2 = 0.0251 | 793.85
332.94 K, 16014 kPa, x2 = 0.9698 | 689.92
332.94 K, 16061 kPa, x2 = 0.0251 | 794.54
332.94 K, 17001 kPa, x2 = 0.0251 | 795.37
332.94 K, 17022 kPa, x2 = 0.9698 | 709.37
332.94 K, 18009 kPa, x2 = 0.9698 | 725.81
332.94 K, 18031 kPa, x2 = 0.0251 | 796.18
332.94 K, 19010 kPa, x2 = 0.9698 | 740.47
332.94 K, 19042 kPa, x2 = 0.0251 | 796.95
332.94 K, 20027 kPa, x2 = 0.0251 | 797.73
332.94 K, 20028 kPa, x2 = 0.9698 | 753.7
332.94 K, 20987 kPa, x2 = 0.0251 | 798.46
332.94 K, 21042 kPa, x2 = 0.9698 | 765.72
332.94 K, 21997 kPa, x2 = 0.9698 | 776.05
332.94 K, 22013 kPa, x2 = 0.0251 | 799.22
332.94 K, 22983 kPa, x2 = 0.9698 | 785.85
332.94 K, 23023 kPa, x2 = 0.0251 | 800
332.94 K, 23838 kPa, x2 = 0.9698 | 793.78
332.94 K, 24078 kPa, x2 = 0.0251 | 800.8
332.94 K, 25033 kPa, x2 = 0.0251 | 801.51
332.96 K, 2025 kPa, x2 = 0.0857 | 785.34
332.96 K, 3025 kPa, x2 = 0.0857 | 786.35
332.96 K, 3995 kPa, x2 = 0.0857 | 787.3
332.96 K, 5006 kPa, x2 = 0.0857 | 788.3
332.96 K, 6029 kPa, x2 = 0.0857 | 789.27
332.96 K, 6996 kPa, x2 = 0.0857 | 790.2
332.96 K, 8001 kPa, x2 = 0.0857 | 791.2
332.96 K, 9060 kPa, x2 = 0.0857 | 792.17
332.96 K, 10005 kPa, x2 = 0.0857 | 793.04
332.96 K, 11020 kPa, x2 = 0.0857 | 793.96
332.96 K, 12043 kPa, x2 = 0.0857 | 794.89
332.96 K, 13021 kPa, x2 = 0.0857 | 795.74
332.96 K, 14023 kPa, x2 = 0.0857 | 796.64
332.96 K, 15013 kPa, x2 = 0.0857 | 797.55
332.96 K, 15989 kPa, x2 = 0.0857 | 798.3
332.96 K, 17015 kPa, x2 = 0.0857 | 799.17
332.96 K, 18001 kPa, x2 = 0.0857 | 799.98
332.96 K, 18996 kPa, x2 = 0.0857 | 800.8
332.96 K, 20012 kPa, x2 = 0.0857 | 801.65
332.96 K, 21010 kPa, x2 = 0.0857 | 802.47
332.96 K, 22025 kPa, x2 = 0.0857 | 803.27
332.96 K, 22983 kPa, x2 = 0.0857 | 804.05
332.96 K, 24061 kPa, x2 = 0.0857 | 804.91
332.96 K, 25000 kPa, x2 = 0.0857 | 805.68
332.99 K, 11100 kPa, x2 = 0.4972 | 807.58
332.99 K, 12062 kPa, x2 = 0.4972 | 809.21
332.99 K, 13082 kPa, x2 = 0.4972 | 810.88
332.99 K, 14087 kPa, x2 = 0.8663 | 752.33
332.99 K, 14115 kPa, x2 = 0.4972 | 812.58
332.99 K, 15053 kPa, x2 = 0.8663 | 762.95
332.99 K, 15061 kPa, x2 = 0.4972 | 814.12
332.99 K, 16035 kPa, x2 = 0.4972 | 815.66
332.99 K, 16081 kPa, x2 = 0.8663 | 772.94
332.99 K, 17073 kPa, x2 = 0.8663 | 781.43
332.99 K, 17108 kPa, x2 = 0.4972 | 817.32
332.99 K, 18040 kPa, x2 = 0.4972 | 818.75
332.99 K, 18052 kPa, x2 = 0.8663 | 789.26
332.99 K, 19036 kPa, x2 = 0.4972 | 820.22
332.99 K, 19049 kPa, x2 = 0.8663 | 796.49
332.99 K, 20021 kPa, x2 = 0.8663 | 803.04
332.99 K, 20051 kPa, x2 = 0.4972 | 821.73
332.99 K, 21046 kPa, x2 = 0.8663 | 809.49
332.99 K, 21048 kPa, x2 = 0.4972 | 823.17
332.99 K, 22048 kPa, x2 = 0.4972 | 824.6
332.99 K, 22064 kPa, x2 = 0.8663 | 815.51
332.99 K, 23005 kPa, x2 = 0.8663 | 820.74
332.99 K, 23047 kPa, x2 = 0.4972 | 826
332.99 K, 24018 kPa, x2 = 0.4972 | 827.36
332.99 K, 24028 kPa, x2 = 0.8663 | 826.19
332.99 K, 25056 kPa, x2 = 0.4972 | 828.77
332.99 K, 25067 kPa, x2 = 0.8663 | 831.43
333 K, 12077 kPa, x2 = 0.5965 | 809.05
333 K, 13047 kPa, x2 = 0.5965 | 811.32
333 K, 14101 kPa, x2 = 0.5965 | 813.7
333 K, 15079 kPa, x2 = 0.5965 | 815.86
333 K, 16069 kPa, x2 = 0.5965 | 817.96
333 K, 17045 kPa, x2 = 0.5965 | 820
333 K, 18064 kPa, x2 = 0.5965 | 822.1
333 K, 19045 kPa, x2 = 0.5965 | 824.02
333 K, 20044 kPa, x2 = 0.5965 | 825.94
333 K, 21039 kPa, x2 = 0.5965 | 827.8
333 K, 22043 kPa, x2 = 0.5965 | 829.66
333 K, 23048 kPa, x2 = 0.5965 | 831.48
333 K, 24011 kPa, x2 = 0.5965 | 833.21
333 K, 25086 kPa, x2 = 0.5965 | 835.1
333.08 K, 6035 kPa, x2 = 0.1842 | 792
333.08 K, 7047 kPa, x2 = 0.1842 | 793.11
333.08 K, 8021 kPa, x2 = 0.1842 | 794.16
333.08 K, 9035 kPa, x2 = 0.1842 | 795.25
333.08 K, 10030 kPa, x2 = 0.1842 | 796.3
333.08 K, 11057 kPa, x2 = 0.1842 | 797.37
333.08 K, 12025 kPa, x2 = 0.1842 | 798.41
333.08 K, 13041 kPa, x2 = 0.1842 | 799.39
333.08 K, 14034 kPa, x2 = 0.1842 | 800.34
333.08 K, 15074 kPa, x2 = 0.1842 | 801.36
333.08 K, 16022 kPa, x2 = 0.1842 | 802.27
